Test results taken from paper PMC9551036, “A selective and orally bioavailable VHL-recruiting PROTAC achieves SMARCA2 degradation in vivo” (Nature Communications, 2022).
Several values for one entry are separate records, joined by “and”; a condition that tells them apart may be missing. Equal values may be shown once.

Test system: proteome of NCI-H1568 cells
Assay: Whole cell unbiased proteomics (TMT) in NCI-H1568 cells
Type: cell-based, human
Details: for Rel. Int.: TMT reporter intensity relative to DMSO 1; for Rel. Int. / Normalised: replicates 1-3; for average: average of normalised replicates; for log2: log2 fold change vs DMSO; for Normalised: normalised relative intensity
Experimental: Cells were seeded at 5 × 10^6 cells on a 100 mm plate 24 h before treatment. Cells were treated in triplicate by addition of test compounds at 100 nM. After 4 h, the cells were washed twice with 10 ml cold PBS and lysed in 500 µL of 100 mM TEAB with 5% (w/v) SDS. The lysate was pulse sonicated briefly and then centrifuged at 15,000 × g for 10 min. Samples were quantified using a micro-BCA protein assay kit (Thermo Fisher Scientific). 300 µg of each sample was reduced with DTT, alkalised with iodoacetamide and double-digested with trypsin using the modified S-TRAP mini (ProtiFi) protocol. Peptide quantification was done using Pierce™ Quantitative Fluorometric Peptide Assay and equal amount from each sample was labelled using TMTpro^TM 16plex Label Reagent Set (Thermo Fisher Scientific) as per the manufacturer’s instructions. The samples were then pooled and desalted using a 7 mm, 3 mL C18 SPE cartridge column (Empore, 3 M). The pooled and desalted sample was fractionated using high pH reverse-phase chromatography on an XBridge peptide BEH column (130 Å, 3.5 μm, 2.1 × 150 mm, Waters) on an Ultimate 3000 HPLC system (Thermo Scientific/Dionex). Buffers A (10 mM ammonium formate in water, pH 9) and B (10 mM ammonium formate in 90% acetonitrile, pH 9) were used over a linear gradient of 2% to 100% buffer B over 80 min at a flow rate of 200 μL/min. 80 fractions were collected using a WPS-3000 FC auto-sampler (Thermo Scientific) before concatenation into 20 fractions based on the UV signal of each fraction. All the fractions were dried in a Genevac EZ-2 concentrator and resuspended in 1% formic acid for MS analysis. The fractions were analysed sequentially on a Q Exactive HF Hybrid Quadrupole-Orbitrap Mass Spectrometer (Thermo Scientific) coupled to an Dionex Ultimate 3000 RS (Thermo Scientific). […] The column temperature was 50 °C. The mass spectrometer was operated in data dependent mode with a single MS survey scan from 335 to 1600 m/z followed by 15 sequential m/z dependent MS2 scans. The 15 most intense precursor ions were sequentially fragmented by higher energy collision dissociation (HCD). The MS1 isolation window was set to 0.7 m/z and the resolution set at 120,000. MS2 resolution was set at 60,000. The AGC targets for MS1 and MS2 were set at 3 × 10^6 ions and 1 × 10^5 ions, respectively. The normalised collision energy was set at 32%. The maximum ion injection times for MS1 and MS2 were set at 50 ms and 200 ms, respectively. The mass accuracy was checked before the initiation of sample analysis. The raw MS data files for all 20 fractions were merged and searched against the Uniprot-sprot-Human-Canonical database (FASTA file released in November 2019) by Maxquant software 2.0.3.0 for protein identification and TMT reporter ion quantitation. The Maxquant parameters were set as follows: enzyme used Trypsin/P; maximum number of missed cleavages equal to two; precursor mass tolerance equal to 10 p.p.m.; fragment mass tolerance equal to 20 p.p.m.; variable modifications: oxidation (M), dioxidation (MW), acetyl (N-term), deamidation (NQ), Gln -> pyro-Glu (Q N-term); fixed modifications: carbamidomethyl (C). Peptide and protein data was filtered by applying a 1% false discovery rate followed by exclusion of proteins with less than two unique peptides. Quantified proteins were filtered if the absolute fold-change difference between the three DMSO replicates was ≥1.5.

[1] = protein SIK1 (LOC102724428;SIK1)

## Cc1ncsc1-c1ccc([C@H](CC[C@H](C)CCN2CCC(c3ccc4c(c3)n(C3CCCC3)c3nc(=O)c5c(Br)cccc5n43)CC2)NC(=O)[C@@H]2C[C@H](O)CN2C(=O)[C@@H](NC(=O)C2(F)CC2)C(C)(C)C)cc1 [compound 12]
  -logP: 0.0276
Protein BRPF1 (P55201)
  Rel. Int.: 0.90 and 0.91 (2×)
  average: 0.99
  log2: -0.0113
  Normalised: 0.98 (2×) and 1.02
Protein ETS1 (P14921)
  Rel. Int.: 0.94 and 0.98 and 0.91
  average: 1.03
  log2: 0.05
  Normalised: 1.04 and 1.05 and 1.02
Protein PBRM1 (Q86U86)
  Rel. Int.: 0.85 and 0.92 and 0.84
  average: 0.95
  log2: -0.07
  Normalised: 0.93 and 0.98 and 0.94
[1]
  Rel. Int.: 0.93 and 0.92 and 0.88
  average: 1.00
  log2: -0.00277
  Normalised: 1.02 and 0.98 and 0.99
Protein SMARCA2 (P51531)
  Rel. Int.: 0.90 and 0.92 and 0.88
  average: 0.99
  log2: -0.0184
  Normalised: 0.99 (2×) and 0.98

## Cc1ncsc1-c1ccc(C(CCC(C)CCN2CCC(c3ccc4c(c3)n(C3CCCC3)c3nc(=O)c5c(Br)cccc5n43)CC2)NC(=O)C2CC(O)CN2C(=O)C(NC(=O)C2(F)CC2)C(C)(C)C)cc1 (stereo not drawn) [ACBI2]
  -logP: 4.42
Protein BRPF1 (P55201)
  Rel. Int.: 0.86 and 0.73 and 0.58
  average: 0.72
  log2: -0.46
  Normalised: 0.74 and 0.73 and 0.70
Protein ETS1 (P14921)
  Rel. Int.: 1.29 and 1.11 and 0.95
  average: 1.13
  log2: 0.17
  Normalised: 1.12 (2×) and 1.14
Protein PBRM1 (Q86U86)
  Rel. Int.: 0.41 and 0.40 and 0.32
  average: 0.38
  log2: -1.40
  Normalised: 0.36 and 0.40 and 0.39
[1]
  Rel. Int.: 1.44 and 1.21 and 1.03
  average: 1.24
  log2: 0.30
  Normalised: 1.25 and 1.21 and 1.24
Protein SMARCA2 (P51531)
  Rel. Int.: 0.52 and 0.45 and 0.40
  average: 0.46
  log2: -1.12
  Normalised: 0.45 and 0.46 and 0.48
